Columns and labels:
[1] = tested on: stratum corneum of black pig skin; assay: Stratum corneum water holding capacity of black pig skin after oxidation treatment (SKINCON-200); conditions: 1 hour
Procedure: Black pig skin was subjected to oxidation treatment for 1 hour with a 10 mM acrolein solution. After rinsing with water for 1 hour, the water was carefully wiped off, and the change in the water content of the stratum corneum over time was measured with the SKINCON-200.
Black pig skin was treated for 1 hour with 20 mM hypochlorous acid. After rinsing with water for 1 hour, the water was carefully wiped off, and the change in the water content of the stratum corneum over time was measured with the SKINCON-200.

[2] = tested on: stratum corneum of porcine skin; assay: Stratum corneum transparency of dry pig skin after oxidation treatment (observation); conditions: dry pig skin immersed in acrolein 0, 1, 10 and 100 mM for 3 hours; dried (humidity 50%, 25° C.), observed over 24 hours
Procedure: Dry pig skin (Alloask, Taiho Pharmaceutical) was immersed in water for 3 days. The pig skin was subjected to oxidation treatment by immersing in an acrolein solution (Tokyo Chemical Industry) at 0, 1, 10 and 100 mM for 3 hours. Acrolein oxidizes by acting on protein resulting in the formation of an aldehyde-protein adduct. Following oxidation treatment, the pig skin was rinsed with water for 1 hour. After rinsing, the pig skin was initially dried (humidity: 50%, temperature: 25° C.) in a Petri dish with the stratum corneum side facing upward followed by observation of the dried pig skin over the course of 24 hours.

[3] = tested on: stratum corneum of porcine skin; assay: Stratum corneum water holding capacity of dry pig skin after oxidation treatment (SKINCON-200); conditions: dry pig skin immersed in acrolein 0, 1, 10 and 100 mM for 3 hours; dried at humidity 50%, temperature 250° C., measured 15 minutes later
Procedure: Dry pig skin (Alloask, Taiho Pharmaceutical) was immersed in water for 3 days. The pig skin was removed and subjected to oxidation treatment by immersing in an acrolein solution (Tokyo Chemical Industry) at 0, 1, 10 and 100 mM for 3 hours. Acrolein oxidizes by acting on protein resulting in the formation of an aldehyde-protein adduct. Following oxidation treatment, the pig skin was rinsed with water for 1 hour. After rinsing, the pig skin was initially dried (humidity: 50%, temperature: […]) in a Petri dish with the stratum corneum side facing upward followed 15 minutes later by measuring the moisture content of the stratum corneum with the SKINCON-200 (IBS).
The results of measuring the moisture content of the stratum corneum are shown in FIG. 1 as skin conductance values.

[4] = tested on: stratum corneum of human forearm skin; assay: Stratum corneum water holding capacity of human forearm skin after occlusion treatment (SKINCON-200); type: in vivo; conditions: occlusion 1 hour, 20 mM hypochlorous acid vs PBS
Procedure: Human forearm skin was subjected to occlusion treatment for 1 hour with PBS or 20 mM hypochlorous acid. After rinsing with water for 1 hour, the water was carefully wiped off, and the change in the water content of the stratum corneum over time was measured with the SKINCON-200.

With `C=CC=O` [acrolein] the “change in the water content of the stratum corneum over time (ability to hold water)” value ([1]; 10 mM acrolein solution) was “A decrease was observed in the ability of stratum corneum of the pig skin to hold water”, the “transparency of the stratum corneum” value [2] was “transparency decreased concentration-dependently” and the “moisture content of the stratum corneum (skin conductance)” value [3] was “decrease in moisture content was observed that was dependent on the concentration”.
`OCl` [hypochlorous acid] was tested, and the “change in the water content of the stratum corneum over time (ability to hold water)” value ([1]; 20 mM hypochlorous acid) was “A decrease was observed in the ability of stratum corneum of the pig skin to hold water” and the “change in the water content of the stratum corneum over time (water holding capacity)” value [4] was “decrease in water holding capacity”.
